In ChEMBL document CHEMBL1132082, “Nonsteroidal androgen receptor agonists based on 4-(trifluoromethyl)-2H-pyrano[3,2-g]quinolin-2-one” (Bioorg Med Chem Lett, 1999):
pEC50, pIC50: −log10 of the molar value.

Assays:
Androgen receptor [1] = target: T1, Androgen receptor (Homo sapiens, UniProt P10275); test: biochemical
T1 sequence (P10275 whole entry): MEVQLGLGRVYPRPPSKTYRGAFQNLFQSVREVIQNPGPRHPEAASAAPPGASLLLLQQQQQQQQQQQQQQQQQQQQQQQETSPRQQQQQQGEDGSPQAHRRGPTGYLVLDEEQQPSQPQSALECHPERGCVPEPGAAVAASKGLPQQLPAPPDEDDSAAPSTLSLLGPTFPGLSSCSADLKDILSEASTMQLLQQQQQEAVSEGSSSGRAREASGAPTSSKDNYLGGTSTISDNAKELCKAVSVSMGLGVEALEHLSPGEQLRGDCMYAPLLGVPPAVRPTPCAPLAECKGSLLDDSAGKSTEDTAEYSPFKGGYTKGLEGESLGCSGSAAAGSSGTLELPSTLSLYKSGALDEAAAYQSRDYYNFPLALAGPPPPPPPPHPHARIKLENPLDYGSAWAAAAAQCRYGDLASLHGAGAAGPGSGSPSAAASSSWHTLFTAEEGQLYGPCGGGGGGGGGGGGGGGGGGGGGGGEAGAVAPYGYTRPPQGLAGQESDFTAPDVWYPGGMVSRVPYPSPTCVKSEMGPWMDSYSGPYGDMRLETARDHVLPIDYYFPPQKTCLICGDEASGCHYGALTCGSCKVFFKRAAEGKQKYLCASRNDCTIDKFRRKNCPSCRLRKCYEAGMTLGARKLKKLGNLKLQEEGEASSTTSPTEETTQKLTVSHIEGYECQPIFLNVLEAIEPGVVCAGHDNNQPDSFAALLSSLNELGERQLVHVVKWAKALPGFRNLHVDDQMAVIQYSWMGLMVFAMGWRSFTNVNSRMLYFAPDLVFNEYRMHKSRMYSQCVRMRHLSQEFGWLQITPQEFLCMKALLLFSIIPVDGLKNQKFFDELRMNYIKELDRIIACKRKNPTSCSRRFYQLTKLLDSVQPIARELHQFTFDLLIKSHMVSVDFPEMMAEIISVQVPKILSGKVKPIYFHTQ
Description: In vitro binding affinity at human androgen receptor transfected into COS cells.

Androgen receptor [2] = target: T1, Androgen receptor
Androgen receptor [3] = target: T1, Androgen receptor; remark: listed apart in the source
Description: In vitro agonistic activity against human androgen receptor using cotransfection assay in CV-1 cells.

Progesterone receptor = target: T2, Progesterone receptor (Homo sapiens, UniProt P06401); test: (§1) In vitro antagonistic activity against human progesterone receptor (hPR); type: functional
T2 sequence (P06401 whole entry): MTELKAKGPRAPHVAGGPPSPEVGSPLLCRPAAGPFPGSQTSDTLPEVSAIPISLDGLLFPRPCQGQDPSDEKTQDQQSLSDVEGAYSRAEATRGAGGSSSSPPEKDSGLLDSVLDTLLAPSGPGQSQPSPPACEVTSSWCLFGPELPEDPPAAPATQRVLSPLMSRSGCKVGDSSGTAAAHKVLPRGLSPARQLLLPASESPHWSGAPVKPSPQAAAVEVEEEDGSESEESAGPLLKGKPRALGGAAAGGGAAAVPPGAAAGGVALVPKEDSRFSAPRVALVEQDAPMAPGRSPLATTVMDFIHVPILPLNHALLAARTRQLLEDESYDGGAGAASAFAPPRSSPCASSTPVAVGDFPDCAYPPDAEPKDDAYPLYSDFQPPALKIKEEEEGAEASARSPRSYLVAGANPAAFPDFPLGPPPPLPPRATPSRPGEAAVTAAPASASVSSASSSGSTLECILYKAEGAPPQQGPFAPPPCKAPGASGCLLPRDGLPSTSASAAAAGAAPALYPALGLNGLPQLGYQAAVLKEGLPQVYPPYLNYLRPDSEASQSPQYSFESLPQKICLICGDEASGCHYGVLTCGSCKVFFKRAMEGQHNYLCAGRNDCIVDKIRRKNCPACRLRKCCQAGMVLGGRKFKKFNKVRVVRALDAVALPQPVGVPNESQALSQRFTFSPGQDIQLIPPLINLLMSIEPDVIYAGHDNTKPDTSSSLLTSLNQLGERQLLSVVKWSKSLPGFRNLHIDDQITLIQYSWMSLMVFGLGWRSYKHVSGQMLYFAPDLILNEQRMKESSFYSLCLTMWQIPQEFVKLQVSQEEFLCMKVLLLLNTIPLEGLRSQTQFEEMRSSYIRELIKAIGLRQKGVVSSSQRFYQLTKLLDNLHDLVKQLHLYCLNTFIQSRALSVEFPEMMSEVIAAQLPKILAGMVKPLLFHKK

[4] = target: T3, Mineralocorticoid receptor (Homo sapiens) (UniProt P08235); test: (§2) In vitro antagonistic activity against human mineralocorticoid receptor (hMR); type: functional
T3 sequence (whole entry): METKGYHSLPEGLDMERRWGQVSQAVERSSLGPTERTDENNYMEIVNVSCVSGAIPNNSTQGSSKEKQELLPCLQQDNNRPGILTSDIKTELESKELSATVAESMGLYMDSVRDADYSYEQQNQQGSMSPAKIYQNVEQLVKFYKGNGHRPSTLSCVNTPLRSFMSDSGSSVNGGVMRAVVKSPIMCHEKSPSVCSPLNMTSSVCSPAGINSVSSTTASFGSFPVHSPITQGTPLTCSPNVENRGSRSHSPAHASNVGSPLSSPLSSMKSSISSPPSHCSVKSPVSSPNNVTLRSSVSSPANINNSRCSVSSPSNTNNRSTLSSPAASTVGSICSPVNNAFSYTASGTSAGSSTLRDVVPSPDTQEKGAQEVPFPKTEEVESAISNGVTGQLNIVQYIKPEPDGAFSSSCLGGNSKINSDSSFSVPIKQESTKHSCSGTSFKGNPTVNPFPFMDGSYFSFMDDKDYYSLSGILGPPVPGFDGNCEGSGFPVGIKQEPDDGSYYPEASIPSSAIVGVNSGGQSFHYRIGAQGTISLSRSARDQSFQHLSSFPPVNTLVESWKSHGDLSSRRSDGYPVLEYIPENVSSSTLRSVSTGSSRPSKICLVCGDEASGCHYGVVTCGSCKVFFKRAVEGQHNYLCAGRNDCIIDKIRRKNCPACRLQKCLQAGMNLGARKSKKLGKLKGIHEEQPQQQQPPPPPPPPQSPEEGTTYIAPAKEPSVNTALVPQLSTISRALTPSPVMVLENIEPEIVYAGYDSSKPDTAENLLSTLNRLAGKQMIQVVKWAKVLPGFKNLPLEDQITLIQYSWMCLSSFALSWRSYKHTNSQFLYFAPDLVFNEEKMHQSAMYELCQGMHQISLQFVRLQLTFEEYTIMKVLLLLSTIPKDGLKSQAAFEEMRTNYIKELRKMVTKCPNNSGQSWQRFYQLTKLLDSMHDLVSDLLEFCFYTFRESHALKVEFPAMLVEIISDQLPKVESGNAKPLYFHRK

Estrogen receptor [5] = target: T4, Estrogen receptor (Homo sapiens, UniProt Q92731+P03372); test: In vitro antagonistic activity against human estrogen receptor (hER); not active; type: functional
[6] = target: T5, Progesterone receptor (Homo sapiens) (UniProt P06401); test: as §1; type: functional
T5 sequence (whole entry): T2 sequence (P06401 whole entry)

Glucocorticoid receptor [7] = target: T6, Glucocorticoid receptor (Homo sapiens, UniProt P04150); test: In vitro antagonistic activity against human glucocorticoid receptor (hGR); type: functional
T6 sequence (P04150 whole entry): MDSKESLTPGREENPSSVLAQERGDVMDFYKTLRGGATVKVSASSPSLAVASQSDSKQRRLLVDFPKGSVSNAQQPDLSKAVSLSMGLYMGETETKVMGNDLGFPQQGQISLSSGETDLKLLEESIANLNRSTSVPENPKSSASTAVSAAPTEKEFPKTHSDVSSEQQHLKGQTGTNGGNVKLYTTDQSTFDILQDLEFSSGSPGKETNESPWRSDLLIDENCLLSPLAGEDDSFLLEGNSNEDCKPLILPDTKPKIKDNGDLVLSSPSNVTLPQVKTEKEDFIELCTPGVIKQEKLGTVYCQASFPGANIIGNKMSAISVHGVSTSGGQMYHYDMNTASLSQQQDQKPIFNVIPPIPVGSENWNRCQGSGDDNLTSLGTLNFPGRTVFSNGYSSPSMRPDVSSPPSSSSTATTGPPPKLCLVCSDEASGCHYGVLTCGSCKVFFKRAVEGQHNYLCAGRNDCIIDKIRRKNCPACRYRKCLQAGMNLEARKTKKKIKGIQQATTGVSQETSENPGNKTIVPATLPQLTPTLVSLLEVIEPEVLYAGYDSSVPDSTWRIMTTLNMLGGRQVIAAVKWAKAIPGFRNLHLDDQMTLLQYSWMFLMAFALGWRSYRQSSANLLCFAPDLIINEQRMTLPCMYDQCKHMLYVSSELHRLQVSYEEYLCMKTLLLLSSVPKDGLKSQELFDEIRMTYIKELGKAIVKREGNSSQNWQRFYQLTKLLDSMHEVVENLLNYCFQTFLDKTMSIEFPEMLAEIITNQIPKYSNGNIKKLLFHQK

Estrogen receptor [8] = target: T4, Estrogen receptor; test: (§3) In vitro antagonistic activity against human estrogen receptor (hER); type: functional
[9] = target: T7, Mineralocorticoid receptor (Homo sapiens, UniProt P08235); test: as §2; type: functional
T7 sequence (P08235 whole entry): T3 sequence (whole entry)

Androgen receptor [10] = target: T1, Androgen receptor; remark: listed apart in the source
Estrogen receptor [11] = target: T4, Estrogen receptor; test: In vitro antagonistic activity against human estrogen receptor (hER); Not active; type: functional
Estrogen receptor [12] = target: T4, Estrogen receptor; test: as §3; type: functional; remark: listed apart in the source
Glucocorticoid receptor [13] = target: T6, Glucocorticoid receptor; test: In vitro antagonistic activity against human glucocorticoid receptor (hGR); not active; type: functional
[14] = target: T7, Mineralocorticoid receptor; test: In vitro antagonistic activity against human mineralocorticoid receptor (hMR); not active; type: functional

Structure (SMILES) | pIC50 (Androgen receptor [1]) | pIC50 (Androgen receptor [2]) | pEC50 (Androgen receptor [3]) | pIC50 (Progesterone receptor) | Efficacy [4] [%] | IC50 (Estrogen receptor [5]) [nM] | Efficacy [6] [%] | pIC50 (Glucocorticoid receptor [7]) | Efficacy (Estrogen receptor [8]) [%] | pIC50 [9] | pEC50 (Androgen receptor [10]) | IC50 (Estrogen receptor [11]) [nM] | IC50 (Estrogen receptor [12]) [nM] | pIC50 (Glucocorticoid receptor [13]) | pIC50 [14]
CCC1CCN(C)c2cc3oc(=O)cc(C(F)(F)F)c3cc21 (centres undefined) | 6.56 | < 8.00 | 6.68 |  |  |  |  |  |  |  |  |  |  |  | 
CC[C@@H]1c2cc3c(C(F)(F)F)cc(=O)oc3cc2NC[C@H]1C (relative stereo) | 9.52 | < 8.00 | 9.00 | 6.89 | 60 | > 10000 | 98 | 5.64 | < 20 | 5.52 |  |  |  |  | 
CC[C@@H]1CNc2cc3oc(=O)cc(C(F)(F)F)c3cc2[C@H]1CC (stereo in doubt) |  |  | 8.30 | 7.19 | 50 |  | 98 | 5.55 | < 20 | 5.72 | 5.85 | > 10000 |  |  | 
CC[C@H]1CNc2cc3oc(=O)cc(C(F)(F)F)c3cc2[C@@H]1CC (stereo in doubt) |  | < 8.00 | 8.30 |  |  |  |  |  |  |  |  |  |  |  | 
O=c1cc(C(F)(F)F)c2cc3c(cc2o1)NCCC3C(F)(F)C(F)(F)F (centres undefined) | 8.30 | < 8.00 | 7.89 |  |  |  |  |  |  |  |  |  |  |  | 
CC[C@H]1c2cc3c(C(F)(F)F)cc(=O)oc3cc2NC[C@H]1C (relative stereo) | 8.70 | < 8.00 | 8.15 | 6.89 | 39 |  | 87 | 6.47 | 33 | 5.55 |  |  | 3100 |  | 
CCC1CC(C)c2cc3c(C(F)(F)F)cc(=O)oc3cc2N1 (cis isomer) | 7.96 | < 8.00 | 8.10 |  |  |  |  |  |  |  |  |  |  |  | 
O=c1cc(C(F)(F)F)c2cc3c(cc2o1)NCCC3 | 9.00 | < 8.00 | 7.72 |  |  |  |  |  |  |  |  |  |  |  | 
CC[C@H]1C[C@@H](C)Nc2cc3oc(=O)cc(C(F)(F)F)c3cc21 (relative stereo) | 7.92 |  | 7.57 |  |  |  |  |  |  |  | 7.80 |  |  |  | 
CCC1CC(CC)c2cc3c(C(F)(F)F)cc(=O)oc3cc2N1 (trans isomer) | 8.15 | < 8.00 | 7.59 |  |  |  |  |  |  |  |  |  |  |  | 
CC1(C)CCc2cc3c(C(F)(F)F)cc(=O)oc3cc2N1 | 9.00 | < 8.00 | 8.05 | 6.24 | 50 | > 10000 | 84 |  | < 20 | 5.82 |  |  |  | < 5.00 | 
CC1=CC(C)(C)Nc2cc3oc(=O)cc(C(F)(F)F)c3cc21 |  |  |  | 7.00 | < 20 | > 10000 | 79 |  | < 20 |  |  |  |  | < 5.00 | < 5.00
CCC1CCc2cc3c(C(F)(F)F)cc(=O)oc3cc2N1 (centres undefined) | 9.00 | < 8.00 | 8.15 |  |  |  |  |  |  |  |  |  |  |  | 
